The values that follow come from ChEMBL document CHEMBL3872242, “Anti-inflammatory tetraquinane diterpenoids from a Crinipellis species” (Bioorg Med Chem, 2017).

Data set [1] has as its system MONO-MAC-6. Description: Inhibition of CCL3 mRNA expression in LPS/INF-gamma stimulated human MONO-MAC-6 cells at 16.54 uM preincubated for 1 hr followed by LPS/INF-gamma stimulation measured after 16 hrs. The class given is functional, cell-based.
A short description of data set [2]: Down regulation of CCL2 mRNA expression in LPS/INF-gamma stimulated human MONO-MAC-6 cells at 16.54 uM preincubated for 1 hr followed by LPS/INF-gamma stimulation measured after 4 hrs by quantitative RT-PCR analysis. In kind it is functional, cell-based.
Data set [3] deals with MONO-MAC-6. Put plainly: Inhibition of CXCL10 mRNA expression in LPS/INF-gamma stimulated human MONO-MAC-6 cells at 16.54 uM preincubated for 1 hr followed by LPS/INF-gamma stimulation measured after 16 hrs. The class given is functional, cell-based.
A short description of data set [4]: Down regulation of IL-6 mRNA expression in LPS/INF-gamma stimulated human MONO-MAC-6 cells at 16.54 uM preincubated for 1 hr followed by LPS/INF-gamma stimulation measured after 4 hrs by quantitative RT-PCR analysis. The class given is functional, cell-based.
Data set [5] concerns MONO-MAC-6. Put plainly: Inhibition of CCL1 mRNA expression in LPS/INF-gamma stimulated human MONO-MAC-6 cells at 16.54 uM preincubated for 1 hr followed by LPS/INF-gamma stimulation measured after 16 hrs. The class given is functional, cell-based.
Data set [6] can be described thus: Effect on GAPDH mRNA expression in human MONO-MAC-6 cells at 3.31 to 16.54 uM preincubated for 1 hr followed by LPS/INF-gamma stimulation measured after 4 hrs by quantitative RT-PCR analysis. In kind it is ADME, cell-based. The note with it: mono-mac-6, 4 h.
The nature of data set [7]: Effect on constitutive activity of EF-1alpha expressed in human MONO-MAC-6 cells up to 50 uM measured after 4 hrs by luciferase reporter gene assay. The class given is ADME, cell-based. The conditions noted are these: mono-mac-6, 4 h. For orientation: A reporter such as luciferase makes a cellular process visible.
For data set [8], the system named is MONO-MAC-6. Description: Inhibition of IL-6 mRNA expression in LPS/INF-gamma stimulated human MONO-MAC-6 cells at 16.54 uM preincubated for 1 hr followed by LPS/INF-gamma stimulation measured after 16 hrs. In kind it is functional, cell-based.
The nature of data set [9]: Inhibition of IRF (unknown origin) expressed in LPS/INF-gamma-stimulated human MONO-MAC-6 cells assessed as reduction in ISRE dependent transcription activity measured after 4 hrs by luciferase reporter gene assay. The class given is cell-based. The note with it: MONO-MAC-6, 4 h.
Data set [10] in a line: Down regulation of IL-8 mRNA expression in LPS/INF-gamma stimulated human MONO-MAC-6 cells at 16.54 uM preincubated for 1 hr followed by LPS/INF-gamma stimulation measured after 4 hrs by quantitative RT-PCR analysis. The class given is functional, cell-based.
For data set [11], the system named is MONO-MAC-6. Description: Inhibition of CXCL11 mRNA expression in LPS/INF-gamma stimulated human MONO-MAC-6 cells at 16.54 uM preincubated for 1 hr followed by LPS/INF-gamma stimulation measured after 16 hrs. In kind it is functional, cell-based.
The subject of data set [12] is MONO-MAC-6. Put plainly: Inhibition of TNF-alpha mRNA expression in LPS/INF-gamma stimulated human MONO-MAC-6 cells at 16.54 uM preincubated for 1 hr followed by LPS/INF-gamma stimulation measured after 16 hrs. The class given is functional, cell-based.
Data set [13] relates to MONO-MAC-6. Put plainly: Inhibition of human THP1 cells derived IL-8 promoter dependent transcription activity expressed in LPS/INF-gamma stimulated human MONO-MAC-6 cells measured after 4 hrs by luciferase reporter gene assay. The class given is functional, cell-based. The note with it: MONO-MAC-6, 4 h.
The subject of data set [14] is MONO-MAC-6. Put plainly: Inhibition of LPS/INF-gamma induced CXCL10 promoter dependent transcription activity in human MONO-MAC-6 cells measured after 4 hrs by luciferase reporter gene assay. The class given is functional.
Data set [15] is described as follows: Inhibition of NF-kappaB (unknown origin) expressed in LPS/INF-gamma-stimulated human MONO-MAC-6 cells measured after 4 hrs by luciferase reporter gene assay. In kind it is cell-based. The note with it: MONO-MAC-6, 4 h.
Data set [16] can be described thus: Cytotoxicity against human MONO-MAC-6 cells up to 50 uM measured after 24 hrs by XTT assay. The class given is toxicity, cell-based. The conditions noted are these: mono-mac-6, 24 h.
Data set [17] in a line: Downregulation of CXCL10 mRNA expression in human MONO-MAC-6 cells at 16.54 uM preincubated for 1 hr followed by LPS/INF-gamma stimulation measured after 4 hrs by quantitative RT-PCR analysis. The class given is functional, cell-based.
Data set [18] concerns MONO-MAC-6. Put plainly: Inhibition of IL-23 mRNA expression in LPS/INF-gamma stimulated human MONO-MAC-6 cells at 16.54 uM preincubated for 1 hr followed by LPS/INF-gamma stimulation measured after 16 hrs. The class given is functional, cell-based.
Data set [19] deals with MONO-MAC-6. Description: Inhibition of CXCL1 mRNA expression in LPS/INF-gamma stimulated human MONO-MAC-6 cells at 16.54 uM preincubated for 1 hr followed by LPS/INF-gamma stimulation measured after 16 hrs. In kind it is functional, cell-based.
The test system of data set [20] is MONO-MAC-6. Description: Inhibition of IL-8 mRNA expression in LPS/INF-gamma stimulated human MONO-MAC-6 cells at 16.54 uM preincubated for 1 hr followed by LPS/INF-gamma stimulation measured after 16 hrs. The class given is functional, cell-based.
The nature of data set [21]: Down regulation of COX-2 mRNA expression in LPS/INF-gamma stimulated human MONO-MAC-6 cells at 16.54 uM preincubated for 1 hr followed by LPS/INF-gamma stimulation measured after 4 hrs by quantitative RT-PCR analysis. In kind it is functional, cell-based.
The nature of data set [22]: Down regulation of TNF-alpha mRNA expression in LPS/INF-gamma stimulated human MONO-MAC-6 cells at 16.54 uM preincubated for 1 hr followed by LPS/INF-gamma stimulation measured after 4 hrs by quantitative RT-PCR analysis. In kind it is functional, cell-based.

pIC50: −log10 of the molar value. Calls of active or inactive are those of the source. No cut-off for these calls is given here.

With `C=C[C@H]1CC[C@]23C[C@@H]4[C@H](C)C(=O)[C@H]5O[C@]54[C@@]2(C)C[C@H](O)[C@]13C`, the inhibition entry in the data set with MONO-MAC-6 [1], with MONO-MAC-6 [3], with MONO-MAC-6 [5], with MONO-MAC-6 [8], in the data set with MONO-MAC-6 [11] and in the data set on MONO-MAC-6 [12] was “Active” each time. For the same molecule, the inhibition entry with MONO-MAC-6 [18], with MONO-MAC-6 [19] and in the data set on MONO-MAC-6 [20] was “Active” each time. Further, the outcome in [2], in [4], in data set [10], in data set [17], in [21] and in [22] was Active. Besides, the Activity entry in [6], in [7] and in [16] was “Non-Toxic” in each case. The pIC50 in [9] is 5.92 to 6.00; with MONO-MAC-6 [13], 5.82 to 5.89; in data set [15] it was 5.52 to 5.57. For the same molecule, the inhibition result in the data set with MONO-MAC-6 [14] is “Dose-dependent effect”.

A word on the pIC50: it is the negative decadic logarithm of the IC50, by convention in mol/L.
